According to US7514408B1, “β-secretase enzyme compositions and methods” (Elan Pharmaceuticals, Inc., priority 1999, dated 2009):
Numbered stars: 1 amine (or outer) side, 2 acyl side, 3 side chain; on linkers, the order of the positions; unused ones are H or OH. Square brackets hold non-standard residues; d marks the D form. Peptide text beside a SMILES is read from it. Sta = CC(C)C[C@H](N)[C@@H](O)CC(=O)O; X1 = CC(C)CC(N[*:1])C(O)C(=O)[*:2]

Target: β-secretase (Homo sapiens, UniProt P56817)
Assay: MBP C125 assay of peptide inhibitors
Format: biochemical
Protocol: The substrates for these studies were synthesized using solid support sequential synthesis as described in Example 7. Assays of the inhibitory activity were performed in the MBP C125 assays described in Example 4 and IC50 values were generated for the heptameric inhibitors are reported in Table 9. Preferred inhibitors of the invention are those compounds in Group III, particularly preferred inhibitors are in Group II and the most preferred are the inhibitors of Group I.
MBP-C125 Assay: Two recombinantly-expressed proteins (FIG. 19 and FIG. 20) were used as substrates for β-secretase. The preferred substrate (FIG. 19) was expressed in E. coli as a fusion protein of the last 125 amino acids of APP fused to the carboxy-terminal end of maltose-binding protein (MBP), using commercially available vectors from New England Biolabs. […]
Recombinant proteins were generated with both the wild-type APP sequence (MBP-C125 WT) at the cleavage site ( . . . Val-Lys-Met-Asp-Ala . . . ). […] This amino-terminal fragment can be recognized on Western blots with the same Ab, or, quantitatively, using an anti-MBP capture-biotinylated SW-192 reporter sandwich format, as shown in FIG. 19. […]
Microtiter 96-well plates were coated with purified anti-MBP antibody (@ 5-μg/ml), followed by blocking with human serum albumin. […] Plates were read in a Cytofluor 2350 Fluorescent Measurement System. […]

Chain of β-secretase (P56817 46-501): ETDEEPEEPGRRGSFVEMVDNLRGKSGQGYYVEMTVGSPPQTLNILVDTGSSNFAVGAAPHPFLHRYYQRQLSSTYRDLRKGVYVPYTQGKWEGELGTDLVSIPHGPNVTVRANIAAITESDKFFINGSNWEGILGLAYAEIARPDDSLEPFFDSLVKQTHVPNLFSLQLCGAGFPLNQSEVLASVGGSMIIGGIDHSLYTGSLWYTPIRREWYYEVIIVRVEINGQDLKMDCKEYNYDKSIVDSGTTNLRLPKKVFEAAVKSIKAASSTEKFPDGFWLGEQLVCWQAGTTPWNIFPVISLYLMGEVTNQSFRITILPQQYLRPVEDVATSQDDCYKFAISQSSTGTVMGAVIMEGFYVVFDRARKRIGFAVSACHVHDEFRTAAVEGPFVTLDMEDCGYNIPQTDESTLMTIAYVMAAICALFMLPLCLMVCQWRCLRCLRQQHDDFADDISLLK

| Molecule | IC50 (MBP C125 assay, heptamer peptides, read-out: IC50 Group) | inhibitor potency relative to the valine substitution alone (fold more potent than P1' valine substituted peptide) |
| --- | --- | --- |
| CSCC[C@H](NC(=O)[C@@H](NC(C)=O)C(C)C)C(=O)NC(CC(C)C)C(O)C(=O)N[C@H](C(=O)N[C@@H](C)C(=O)N[C@@H](CCC(=O)O)C(=O)N[C@@H](Cc1ccccc1)C(=O)O)C(C)C (some centres unmarked) [Example 7P] (Ac-VM[X1]VAEF-OH) | 1 to 10 µM |  |
| NH2-KTEEISEVNVAEF-COOH (H-KTEEISEVN[Sta]VAEF-OH) [P10-P4′sta D→V] |  | about 100 times |
